Test results published in ChEMBL document CHEMBL5212743, “Selectivity Literature for EUbOPEN Chemogenomics Library wave 3” (2023).

Columns and labels:
[1] = biological target: Alpha-2A adrenergic receptor (Homo sapiens, UniProt P08913); experiment: Selectivity interaction (GPCR panel (PDSP screen)) EUB0000327a ADRA2A
[2] = biological target: Sodium-dependent dopamine transporter (Homo sapiens, UniProt Q01959); experiment: Selectivity interaction (GPCR panel (PDSP screen)) EUB0000327a SLC6A3
[3] = biological target: T1, Calcium/calmodulin-dependent protein kinase type 1B (Homo sapiens, UniProt Q6P2M8); experiment: Selectivity interaction (KinomeScan (DiscoverX)) EUB0000312b PNCK; conditions: at 1 µM
T1 sequence (Q6P2M8 whole entry): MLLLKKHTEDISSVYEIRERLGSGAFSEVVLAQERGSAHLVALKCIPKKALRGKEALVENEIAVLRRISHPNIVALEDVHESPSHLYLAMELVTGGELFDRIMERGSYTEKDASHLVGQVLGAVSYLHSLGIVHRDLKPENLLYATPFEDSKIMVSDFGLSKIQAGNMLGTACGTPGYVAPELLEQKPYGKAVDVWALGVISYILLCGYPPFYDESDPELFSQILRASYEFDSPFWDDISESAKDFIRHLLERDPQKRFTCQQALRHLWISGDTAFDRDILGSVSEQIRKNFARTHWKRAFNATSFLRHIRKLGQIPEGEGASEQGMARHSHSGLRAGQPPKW

[4] = biological target: T1, Calcium/calmodulin-dependent protein kinase type 1B; experiment: Selectivity interaction (NanoBRET assay (HEK293T cells)) EUB0000312b PNCK
[5] = biological target: Mitogen-activated protein kinase 9 (Homo sapiens, UniProt P45984); experiment: Selectivity interaction (KinomeScan (DiscoverX)) EUB0000312b MAPK9; conditions: at 1 µM
[6] = biological target: T2, Epithelial discoidin domain-containing receptor 1 (Homo sapiens, UniProt Q08345); experiment: Selectivity interaction (KinomeScan (DiscoverX)) EUB0000312b DDR1; conditions: at 1 µM
T2 sequence (Q08345 whole entry, the tested form may be a part): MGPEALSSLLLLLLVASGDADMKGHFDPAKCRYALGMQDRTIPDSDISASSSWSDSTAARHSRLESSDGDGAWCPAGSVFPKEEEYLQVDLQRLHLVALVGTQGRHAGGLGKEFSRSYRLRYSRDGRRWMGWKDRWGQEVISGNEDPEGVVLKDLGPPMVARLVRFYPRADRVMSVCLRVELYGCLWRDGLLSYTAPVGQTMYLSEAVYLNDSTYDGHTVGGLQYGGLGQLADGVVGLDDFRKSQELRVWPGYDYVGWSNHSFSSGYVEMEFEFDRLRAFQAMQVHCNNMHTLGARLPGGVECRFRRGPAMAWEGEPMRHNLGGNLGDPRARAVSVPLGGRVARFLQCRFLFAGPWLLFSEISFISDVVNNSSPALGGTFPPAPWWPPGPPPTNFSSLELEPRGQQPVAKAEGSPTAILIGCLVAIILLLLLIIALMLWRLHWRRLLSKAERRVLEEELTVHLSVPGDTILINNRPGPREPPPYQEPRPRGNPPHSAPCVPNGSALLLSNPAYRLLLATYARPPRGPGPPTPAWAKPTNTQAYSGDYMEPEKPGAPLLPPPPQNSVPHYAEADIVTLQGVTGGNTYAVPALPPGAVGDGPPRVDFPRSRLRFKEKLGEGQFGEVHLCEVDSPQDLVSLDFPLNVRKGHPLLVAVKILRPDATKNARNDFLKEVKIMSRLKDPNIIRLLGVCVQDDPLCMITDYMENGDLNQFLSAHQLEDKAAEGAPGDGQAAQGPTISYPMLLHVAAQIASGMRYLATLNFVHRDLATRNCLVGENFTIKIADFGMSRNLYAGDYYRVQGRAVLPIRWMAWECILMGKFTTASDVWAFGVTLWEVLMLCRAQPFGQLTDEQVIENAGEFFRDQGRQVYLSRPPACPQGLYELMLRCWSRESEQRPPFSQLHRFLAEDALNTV

[7] = biological target: T2, Epithelial discoidin domain-containing receptor 1; experiment: Selectivity interaction (NanoBRET assay (HEK293T cells)) EUB0000312b DDR1
[8] = biological target: T3, Tyrosine-protein kinase JAK1 (Homo sapiens, UniProt P23458); experiment: Selectivity interaction (KinomeScan (DiscoverX)) EUB0000312b JAK1@kinase 1; conditions: at 1 µM
T3 sequence (P23458 whole entry): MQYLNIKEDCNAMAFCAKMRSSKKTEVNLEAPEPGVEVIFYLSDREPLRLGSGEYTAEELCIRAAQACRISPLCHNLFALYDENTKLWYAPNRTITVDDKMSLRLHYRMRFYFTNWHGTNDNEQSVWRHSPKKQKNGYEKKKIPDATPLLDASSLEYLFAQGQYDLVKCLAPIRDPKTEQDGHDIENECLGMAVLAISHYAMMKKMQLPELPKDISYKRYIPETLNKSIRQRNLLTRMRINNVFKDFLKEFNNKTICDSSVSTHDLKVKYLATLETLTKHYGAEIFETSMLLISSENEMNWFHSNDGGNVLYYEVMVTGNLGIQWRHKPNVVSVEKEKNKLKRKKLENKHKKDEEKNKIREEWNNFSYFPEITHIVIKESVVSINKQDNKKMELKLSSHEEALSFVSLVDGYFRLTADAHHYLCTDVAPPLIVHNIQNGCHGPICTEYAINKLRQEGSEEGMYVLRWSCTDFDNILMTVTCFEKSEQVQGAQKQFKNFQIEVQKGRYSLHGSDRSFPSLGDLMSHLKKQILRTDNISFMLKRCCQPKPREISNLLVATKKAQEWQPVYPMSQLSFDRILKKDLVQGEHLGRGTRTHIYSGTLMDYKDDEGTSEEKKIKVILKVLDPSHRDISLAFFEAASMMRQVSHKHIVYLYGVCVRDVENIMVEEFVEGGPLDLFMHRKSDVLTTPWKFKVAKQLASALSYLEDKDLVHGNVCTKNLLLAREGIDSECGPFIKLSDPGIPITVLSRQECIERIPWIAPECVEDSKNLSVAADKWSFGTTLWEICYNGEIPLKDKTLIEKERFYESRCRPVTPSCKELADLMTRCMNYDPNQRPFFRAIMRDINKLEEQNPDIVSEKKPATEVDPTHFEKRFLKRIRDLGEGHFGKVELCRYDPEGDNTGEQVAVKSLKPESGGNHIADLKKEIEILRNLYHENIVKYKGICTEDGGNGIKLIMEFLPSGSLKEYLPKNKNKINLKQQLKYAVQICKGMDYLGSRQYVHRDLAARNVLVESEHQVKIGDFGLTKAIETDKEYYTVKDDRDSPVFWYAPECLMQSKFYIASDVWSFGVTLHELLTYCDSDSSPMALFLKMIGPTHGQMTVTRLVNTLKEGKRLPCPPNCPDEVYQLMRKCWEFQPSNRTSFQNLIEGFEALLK

[9] = biological target: T3, Tyrosine-protein kinase JAK1; experiment: Selectivity interaction (NanoBRET assay (HEK293T cells)) EUB0000312b JAK1@kinase 1
[10] = biological target: T4, Phosphatidylinositol 4,5-bisphosphate 3-kinase catalytic subunit alpha isoform (Homo sapiens, UniProt P42336); experiment: Selectivity interaction (KinomeScan (DiscoverX)) EUB0000312b PIK3CA; conditions: at 1 µM
T4 sequence (P42336 whole entry, canonical isoform): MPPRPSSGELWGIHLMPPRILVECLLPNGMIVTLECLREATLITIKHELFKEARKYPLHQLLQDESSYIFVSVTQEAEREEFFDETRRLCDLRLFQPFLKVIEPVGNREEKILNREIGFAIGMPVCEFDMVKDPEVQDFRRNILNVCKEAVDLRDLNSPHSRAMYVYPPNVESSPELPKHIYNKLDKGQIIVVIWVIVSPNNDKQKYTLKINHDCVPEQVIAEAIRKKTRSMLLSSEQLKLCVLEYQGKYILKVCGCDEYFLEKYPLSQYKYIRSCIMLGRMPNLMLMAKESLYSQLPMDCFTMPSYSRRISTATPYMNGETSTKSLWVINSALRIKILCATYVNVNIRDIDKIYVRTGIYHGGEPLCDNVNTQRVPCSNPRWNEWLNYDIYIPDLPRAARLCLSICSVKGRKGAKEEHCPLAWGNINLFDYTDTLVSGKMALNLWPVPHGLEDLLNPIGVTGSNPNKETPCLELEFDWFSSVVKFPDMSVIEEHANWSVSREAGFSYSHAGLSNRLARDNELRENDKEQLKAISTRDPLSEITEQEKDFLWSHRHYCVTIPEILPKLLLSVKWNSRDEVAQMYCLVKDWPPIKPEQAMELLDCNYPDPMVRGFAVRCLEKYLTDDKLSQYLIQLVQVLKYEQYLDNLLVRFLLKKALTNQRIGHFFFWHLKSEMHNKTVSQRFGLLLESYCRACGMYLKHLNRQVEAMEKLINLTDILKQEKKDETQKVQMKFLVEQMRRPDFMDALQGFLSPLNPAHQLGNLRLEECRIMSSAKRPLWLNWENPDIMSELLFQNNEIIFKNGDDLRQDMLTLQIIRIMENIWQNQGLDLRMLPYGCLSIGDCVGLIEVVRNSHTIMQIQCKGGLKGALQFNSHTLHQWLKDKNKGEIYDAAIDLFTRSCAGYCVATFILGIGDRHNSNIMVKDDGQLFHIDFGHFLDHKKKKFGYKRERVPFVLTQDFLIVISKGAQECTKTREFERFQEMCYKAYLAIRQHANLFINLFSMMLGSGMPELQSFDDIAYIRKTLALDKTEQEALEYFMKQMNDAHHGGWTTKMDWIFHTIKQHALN

[11] = biological target: T4, Phosphatidylinositol 4,5-bisphosphate 3-kinase catalytic subunit alpha isoform; experiment: Selectivity interaction (NanoBRET assay (HEK293T cells)) EUB0000312b PIK3CA
[12] = biological target: T5, STE20-like serine/threonine-protein kinase (Homo sapiens, UniProt Q9H2G2); experiment: Selectivity interaction (ScanMAX (DiscoverX)) EUB0000232b SLK; conditions: at 1 µM
[13] = biological target: T5, STE20-like serine/threonine-protein kinase; experiment: Selectivity interaction (ScanMAX (DiscoverX, competition-binding assay)) EUB0000232b SLK
[14] = system: Epidermal growth factor receptor (Homo sapiens), P00533 [L858R]; experiment: (§1) Selectivity interaction (ScanMAX (DiscoverX)) EUB0000232b EGFR; conditions: at 1 µM
[15] = biological target: T6, Epidermal growth factor receptor (Homo sapiens, UniProt P00533); experiment: as §1; conditions: at 1 µM
T6 sequence (P00533 whole entry): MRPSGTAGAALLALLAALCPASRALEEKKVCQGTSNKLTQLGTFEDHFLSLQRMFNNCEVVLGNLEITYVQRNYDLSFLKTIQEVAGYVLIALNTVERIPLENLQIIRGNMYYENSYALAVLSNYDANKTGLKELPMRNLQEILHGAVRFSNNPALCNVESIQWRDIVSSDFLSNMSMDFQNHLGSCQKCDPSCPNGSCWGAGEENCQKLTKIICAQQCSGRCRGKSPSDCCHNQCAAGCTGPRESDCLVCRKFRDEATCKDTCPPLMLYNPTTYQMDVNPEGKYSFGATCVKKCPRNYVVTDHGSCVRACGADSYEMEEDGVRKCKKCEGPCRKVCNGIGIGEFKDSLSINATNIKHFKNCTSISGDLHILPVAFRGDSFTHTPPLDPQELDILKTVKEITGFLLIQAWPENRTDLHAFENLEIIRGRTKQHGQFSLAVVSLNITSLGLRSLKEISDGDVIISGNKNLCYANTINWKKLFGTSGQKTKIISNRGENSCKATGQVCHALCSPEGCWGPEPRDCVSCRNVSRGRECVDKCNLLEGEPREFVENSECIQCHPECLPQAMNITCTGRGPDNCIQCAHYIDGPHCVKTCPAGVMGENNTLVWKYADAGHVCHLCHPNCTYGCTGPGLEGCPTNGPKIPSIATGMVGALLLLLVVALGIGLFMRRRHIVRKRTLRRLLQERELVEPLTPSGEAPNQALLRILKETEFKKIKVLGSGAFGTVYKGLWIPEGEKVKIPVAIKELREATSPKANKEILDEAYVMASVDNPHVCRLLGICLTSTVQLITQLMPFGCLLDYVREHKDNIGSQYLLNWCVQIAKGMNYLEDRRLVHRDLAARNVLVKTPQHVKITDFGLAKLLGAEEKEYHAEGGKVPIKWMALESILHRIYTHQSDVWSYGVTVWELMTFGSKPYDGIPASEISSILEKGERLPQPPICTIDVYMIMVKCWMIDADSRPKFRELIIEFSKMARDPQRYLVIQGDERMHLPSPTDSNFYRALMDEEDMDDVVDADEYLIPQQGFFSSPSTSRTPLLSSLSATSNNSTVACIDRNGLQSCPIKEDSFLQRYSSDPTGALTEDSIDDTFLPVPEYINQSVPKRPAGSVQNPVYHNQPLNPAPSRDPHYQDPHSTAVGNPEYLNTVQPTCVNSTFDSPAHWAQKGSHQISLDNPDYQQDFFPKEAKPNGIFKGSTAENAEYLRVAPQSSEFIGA

[16] = biological target: T6, Epidermal growth factor receptor; experiment: Selectivity interaction (ScanMAX (DiscoverX, competition-binding assay)) EUB0000232b EGFR
[17] = biological target: T6, Epidermal growth factor receptor; experiment: as §1; conditions: at 1 µM; remark: listed apart in the source
[18] = biological target: T7, Tyrosine-protein kinase Lck (Homo sapiens, UniProt P06239); experiment: Selectivity interaction (ScanMAX (DiscoverX)) EUB0000232b LCK; conditions: at 1 µM
[19] = biological target: T7, Tyrosine-protein kinase Lck; experiment: Selectivity interaction (ScanMAX (DiscoverX, competition-binding assay)) EUB0000232b LCK
[20] = biological target: T8, Tyrosine-protein kinase SYK (Homo sapiens, UniProt P43405); experiment: Selectivity interaction (ScanMAX (DiscoverX)) EUB0000232b SYK; conditions: at 1 µM
[21] = biological target: T8, Tyrosine-protein kinase SYK; experiment: Selectivity interaction (ScanMAX (DiscoverX, competition-binding assay)) EUB0000232b SYK

O=C(NNS(=O)(=O)c1ccccc1)c1cc(-c2ccnnc2)ccc1F [WM-2474]
Ki [1]: > 10 µM
Ki [2]: > 10 µM

Cc1cnc(-c2cc(Cl)ccc2F)cc1-n1c(=O)n(CC(N)=O)c2cnccc21 [TP-008]
% of control [3]: 39.5%
IC50 [4]: > 20 µM
% of control [5]: 39.6%
% of control [6]: 36.7%
IC50 [7]: > 20 µM
% of control [8]: 38.6%
IC50 [9]: > 20 µM
% of control [10]: 33.9%
IC50 [11]: > 20 µM

CCCCN(Cc1ccccc1)C(=O)c1ccc(S(=O)(=O)Nc2ccccc2)cc1
% of control [12]: 0%
Kd [13]: > 10 µM
% of control [14]: 0%
% of control [15]: 4.9%
Kd [16]: > 10 µM
% of control [17]: 0%
% of control [18]: 0%
Kd [19]: > 10 µM
% of control [20]: 1.7%
Kd [21]: > 10 µM
